Measurements taken from US20230365592A1 (Agios Pharmaceuticals, Inc., priority 2022, published 2023).

molecular target: T1, human PAH with the R408W mutation (Homo sapiens, UniProt P00439, R408W); test: Cell Based Phenylalanine Flux Assay; details: A375 cells expressing R408W PAH; 24 hrs with compound, then 20 µM sepiapterin and 800 µM 13C9,15N-Phenylalanine for 4 hours; 13C-Tyrosine by LC-MS; average where tested multiple times; read-out: AC50;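 also: after compound treatment, cells received sepiapterin plus isotope-labelled Phenylalanine for 4 hours, then labelled Tyrosine in the medium was quantified, 10-point 2-fold dilution series run in duplicate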
T1 construct: expressed in transfected cells
T1 sequence (P00439 1-452 R408W): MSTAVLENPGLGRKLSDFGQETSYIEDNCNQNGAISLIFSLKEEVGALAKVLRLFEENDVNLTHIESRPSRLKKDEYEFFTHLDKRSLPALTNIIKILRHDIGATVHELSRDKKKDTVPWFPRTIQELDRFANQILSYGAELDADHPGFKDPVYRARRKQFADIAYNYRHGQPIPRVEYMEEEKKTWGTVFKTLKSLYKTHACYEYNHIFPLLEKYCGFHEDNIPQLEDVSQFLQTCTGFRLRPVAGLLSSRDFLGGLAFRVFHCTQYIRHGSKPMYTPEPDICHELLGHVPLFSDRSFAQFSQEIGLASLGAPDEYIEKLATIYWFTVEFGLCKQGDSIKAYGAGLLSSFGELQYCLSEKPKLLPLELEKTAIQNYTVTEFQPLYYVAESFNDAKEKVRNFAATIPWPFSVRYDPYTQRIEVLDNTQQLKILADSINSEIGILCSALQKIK

SMILES | AC50 [nM]
Cn1ccc(-c2nnc(C(=O)N3CCc4[nH]cnc4C3c3cc4cc(C(F)(F)F)ccn4n3)o2)n1 (stereo not shown) [listing 1 of 2 here] | > 5000
Cc1cccc2cc(C3c4nc[nH]c4CCN3C(=O)c3nc(C(F)(F)F)nn3C)nn12 (stereo not shown) | 1000 to 5000
COc1cccn2nc(C3c4nc[nH]c4CCN3C(=O)c3nnc(C)o3)cc12 (stereo not shown) | > 5000
Cn1ccc(-c2nnc(C(=O)N3CCc4[nH]cnc4C3c3cc4cc(C(F)(F)F)ccn4n3)o2)n1 (stereo not shown) [listing 2 of 2 here] | 1000 to 5000
O=C(c1ocnc1C(F)F)N1CCc2[nH]cnc2C1c1cc2c(Cl)cccn2n1 (stereo not shown) | 1000 to 5000
Cc1cccn2nc(C3c4nc[nH]c4CCN3C(=O)c3cnc(C(C)(C)O)o3)cc12 (stereo not shown) | 1000 to 5000
O=C(c1cnn2cc(N3CCOCC3)ccc12)N1CCc2[nH]cnc2C1c1cc2ccccn2n1 (stereo not shown) | > 5000

same assay, conditions: A375 cells expressing human PAH R408W; 24 hrs compound incubation; 13C-Tyrosine by LC-MS; average where tested multiple times; read-out: AC50

SMILES | AC50 [nM]
Cc1cccc2cc([C@H]3c4nc[nH]c4CCN3c3nnc(-c4cccnc4F)o3)nn12 [Example 2275, (R)-2-(2-fluoropyridin-3-yl)-5-(4-(7-methylpyrazolo[1,5-a]pyridin-2-yl)-1,4,6,7-tetrahydro-5H-imidazo[4,5-c]pyridin-5-yl)-1,3,4-oxadiazole] | > 5000
CC1(c2nnc(N3CCc4[nH]cnc4[C@H]3c3cc4c(Cl)cccn4n3)o2)CC1 [Example 2259, (S)-2-(4-(4-chloropyrazolo[1,5-a]pyridin-2-yl)-1,4,6,7-tetrahydro-5H-imidazo[4,5-c]pyridin-5-yl)-5-(1-methylcyclopropyl)-1,3,4-oxadiazole] | 500 to 1000
Cc1cccn2nc([C@@H]3c4nc[nH]c4CCN3c3nnc(C4(C)CC4)o3)cc12 [Example 2189, (S)-2-(1-methylcyclopropyl)-5-(4-(4-methylpyrazolo[1,5-a]pyridin-2-yl)-1,4,6,7-tetrahydro-5H-imidazo[4,5-c]pyridin-5-yl)-1,3,4-oxadiazole] | 500 to 1000
COc1cccn2nc([C@H]3c4nc[nH]c4CCN3C(=O)c3cnn4cc(C)ccc34)cc12 [Example 2471, (R)-(4-(4-methoxypyrazolo[1,5-a]pyridin-2-yl)-6,7-dihydro-1H-imidazo[4,5-c]pyridin-5(4H)-yl)(6-methylpyrazolo[1,5-a]pyridin-3-yl)methanone] | > 5000
Cn1cc(-c2nnc(C(=O)N3CCc4[nH]cnc4[C@@H]3c3cc4c(Br)cccn4n3)o2)cn1 [Example 1869, (R)-(4-(4-bromopyrazolo[1,5-a]pyridin-2-yl)-1,4,6,7-tetrahydro-5H-imidazo[4,5-c]pyridin-5-yl)(5-(1-methyl-1H-pyrazol-4-yl)-1,3,4-oxadiazol-2-yl)methanone] | > 5000
CC(C)c1cccn2nc([C@H]3c4nc[nH]c4CCN3c3nnc(C(F)F)o3)cc12 [Example 2084, (R)-2-(difluoromethyl)-5-(4-(4-isopropylpyrazolo[1,5-a]pyridin-2-yl)-1,4,6,7-tetrahydro-5H-imidazo[4,5-c]pyridin-5-yl)-1,3,4-oxadiazole] | > 5000

same assay, conditions: A375 cells expressing human R408W PAH; 24 hrs compound incubation; 13C-Tyrosine by LC-MS; average where tested multiple times; read-out: AC50

SMILES | AC50 [nM]
O=C(c1nnc(C2CC2)o1)N1CCc2[nH]cnc2[C@H]1c1cc2c(Cl)cccn2n1 [Example 1094, (S)-(4-(4-chloropyrazolo[1,5-a]pyridin-2-yl)-6,7-dihydro-1H-imidazo[4,5-c]pyridin-5(4H)-yl)(5-cyclopropyl-1,3,4-oxadiazol-2-yl)methanone] | < 500
Cn1cc(-c2nnc(C(=O)N3CCc4[nH]cnc4[C@@H]3c3cc4ccc(F)cn4n3)o2)cn1 [Example 1101, (R)-(4-(6-fluoropyrazolo[1,5-a]pyridin-2-yl)-6,7-dihydro-1H-imidazo[4,5-c]pyridin-5(4H)-yl)(5-(1-methyl-1H-pyrazol-4-yl)-1,3,4-oxadiazol-2-yl)methanone] | > 5000
O=C(c1nnc(-c2cnccn2)o1)N1CCc2[nH]cnc2[C@@H]1c1cc2cccc(Cl)n2n1 [Example 978, (R)-(4-(7-chloropyrazolo[1,5-a]pyridin-2-yl)-6,7-dihydro-1H-imidazo[4,5-c]pyridin-5(4H)-yl)(5-(pyrazin-2-yl)-1,3,4-oxadiazol-2-yl)methanone] | 1000 to 5000
O=C(c1nnc(C2CC2)o1)N1CCc2[nH]cnc2[C@@H]1c1cc2c(C(F)F)cccn2n1 [Example 981, (R)-(5-cyclopropyl-1,3,4-oxadiazol-2-yl)(4-(4-(difluoromethyl)pyrazolo[1,5-a]pyridin-2-yl)-6,7-dihydro-1H-imidazo[4,5-c]pyridin-5(4H)-yl)methanone] | 1000 to 5000
Cc1ncccc1-c1nnc(C(=O)N2CCc3[nH]cnc3[C@H]2c2cc3cccc(F)n3n2)o1 [Example 1494, (S)-(4-(7-fluoropyrazolo[1,5-a]pyridin-2-yl)-6,7-dihydro-1H-imidazo[4,5-c]pyridin-5(4H)-yl)(5-(2-methylpyridin-3-yl)-1,3,4-oxadiazol-2-yl)methanone] | < 500
O=C(CC1(O)CCC1)N1CCc2[nH]cnc2[C@H]1c1cc2ccccn2n1 [Example 634, (S)-2-(1-hydroxycyclobutyl)-1-(4-(pyrazolo[1,5-a]pyridin-2-yl)-6,7-dihydro-1H-imidazo[4,5-c]pyridin-5(4H)-yl)ethanone] | < 500
Cc1nc(C(C)(C)F)oc1C(=O)N1CCc2[nH]cnc2[C@H]1c1cc2cccc(Cl)n2n1 [Example 1266, (S)-(4-(7-chloropyrazolo[1,5-a]pyridin-2-yl)-6,7-dihydro-1H-imidazo[4,5-c]pyridin-5(4H)-yl)(2-(2-fluoropropan-2-yl)-4-methyloxazol-5-yl)methanone] | < 500
O=C(c1nnc(-c2ccccn2)o1)N1CCc2[nH]cnc2[C@H]1c1cc2c(OC(F)(F)F)cccn2n1 [Example 1760, (S)-(5-(pyridin-2-yl)-1,3,4-oxadiazol-2-yl)(4-(4-(trifluoromethoxy)pyrazolo[1,5-a]pyridin-2-yl)-6,7-dihydro-1H-imidazo[4,5-c]pyridin-5(4H)-yl)methanone] | < 500
Cn1ccc(-c2nnc(C(=O)N3CCc4[nH]cnc4[C@H]3c3cc4cccc(F)n4n3)o2)n1 [Example 1456, (S)-(4-(7-fluoropyrazolo[1,5-a]pyridin-2-yl)-6,7-dihydro-1H-imidazo[4,5-c]pyridin-5(4H)-yl)(5-(1-methyl-1H-pyrazol-3-yl)-1,3,4-oxadiazol-2-yl)methanone] | < 500
O=C(c1ocnc1C(F)F)N1CCc2[nH]cnc2[C@@H]1c1cc2cccc(Cl)n2n1 [Example 959, (R)-(4-(7-chloropyrazolo[1,5-a]pyridin-2-yl)-6,7-dihydro-1H-imidazo[4,5-c]pyridin-5(4H)-yl)(4-(difluoromethyl)oxazol-5-yl)methanone] | 1000 to 5000
Cn1ccc(-c2nnc(C(=O)N3CCc4[nH]cnc4[C@H]3c3cc4c(OC(F)(F)F)cccn4n3)o2)n1 [Example 1702, (S)-(5-(1-methyl-1H-pyrazol-3-yl)-1,3,4-oxadiazol-2-yl)(4-(4-(trifluoromethoxy)pyrazolo[1,5-a]pyridin-2-yl)-6,7-dihydro-1H-imidazo[4,5-c]pyridin-5(4H)-yl)methanone] | < 500
Cc1cccc2cc([C@H]3c4nc[nH]c4CCN3C(=O)c3cc(C(F)F)nn3C)nn12 [Example 1389, (R)-(3-(difluoromethyl)-1-methyl-1H-pyrazol-5-yl)(4-(7-methylpyrazolo[1,5-a]pyridin-2-yl)-6,7-dihydro-1H-imidazo[4,5-c]pyridin-5(4H)-yl)methanone] | > 5000
